Data taken from US9586951B2 (FUJIFILM Corporation, priority 2013, dated 2017).

Molecular target: T1, ATM (Homo sapiens, UniProt Q13315)
T1 construct: detecting phosphorylation of Chk2 in a human non-small cell lung cancer cell line NCI-H460 (ATCC company); host or cells: NCI-H460 human non-small cell lung cancer cells
Experiment: ATM inhibition test (phosphorylation of Chk2 generated by ionizing radiation, AlphaScreen SureFire)
Assay type: cell-based
Conditions: phosphorylated Chk2 in NCI-H460 cells, ionizing radiation 8Gy, 1 hour after test compound treatment; read-out: ATM inhibitory activity
Outline: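 Human NCI-H460 lung cancer cells were treated with compound for 1 h, then irradiated at 8Gy and incubated 1 h at 37° C. Phospho-Chk2 was quantified by AlphaScreen SureFire; inhibition % was normalised between irradiated untreated and non-irradiated untreated wells.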

T1 sequence (Q13315 whole entry): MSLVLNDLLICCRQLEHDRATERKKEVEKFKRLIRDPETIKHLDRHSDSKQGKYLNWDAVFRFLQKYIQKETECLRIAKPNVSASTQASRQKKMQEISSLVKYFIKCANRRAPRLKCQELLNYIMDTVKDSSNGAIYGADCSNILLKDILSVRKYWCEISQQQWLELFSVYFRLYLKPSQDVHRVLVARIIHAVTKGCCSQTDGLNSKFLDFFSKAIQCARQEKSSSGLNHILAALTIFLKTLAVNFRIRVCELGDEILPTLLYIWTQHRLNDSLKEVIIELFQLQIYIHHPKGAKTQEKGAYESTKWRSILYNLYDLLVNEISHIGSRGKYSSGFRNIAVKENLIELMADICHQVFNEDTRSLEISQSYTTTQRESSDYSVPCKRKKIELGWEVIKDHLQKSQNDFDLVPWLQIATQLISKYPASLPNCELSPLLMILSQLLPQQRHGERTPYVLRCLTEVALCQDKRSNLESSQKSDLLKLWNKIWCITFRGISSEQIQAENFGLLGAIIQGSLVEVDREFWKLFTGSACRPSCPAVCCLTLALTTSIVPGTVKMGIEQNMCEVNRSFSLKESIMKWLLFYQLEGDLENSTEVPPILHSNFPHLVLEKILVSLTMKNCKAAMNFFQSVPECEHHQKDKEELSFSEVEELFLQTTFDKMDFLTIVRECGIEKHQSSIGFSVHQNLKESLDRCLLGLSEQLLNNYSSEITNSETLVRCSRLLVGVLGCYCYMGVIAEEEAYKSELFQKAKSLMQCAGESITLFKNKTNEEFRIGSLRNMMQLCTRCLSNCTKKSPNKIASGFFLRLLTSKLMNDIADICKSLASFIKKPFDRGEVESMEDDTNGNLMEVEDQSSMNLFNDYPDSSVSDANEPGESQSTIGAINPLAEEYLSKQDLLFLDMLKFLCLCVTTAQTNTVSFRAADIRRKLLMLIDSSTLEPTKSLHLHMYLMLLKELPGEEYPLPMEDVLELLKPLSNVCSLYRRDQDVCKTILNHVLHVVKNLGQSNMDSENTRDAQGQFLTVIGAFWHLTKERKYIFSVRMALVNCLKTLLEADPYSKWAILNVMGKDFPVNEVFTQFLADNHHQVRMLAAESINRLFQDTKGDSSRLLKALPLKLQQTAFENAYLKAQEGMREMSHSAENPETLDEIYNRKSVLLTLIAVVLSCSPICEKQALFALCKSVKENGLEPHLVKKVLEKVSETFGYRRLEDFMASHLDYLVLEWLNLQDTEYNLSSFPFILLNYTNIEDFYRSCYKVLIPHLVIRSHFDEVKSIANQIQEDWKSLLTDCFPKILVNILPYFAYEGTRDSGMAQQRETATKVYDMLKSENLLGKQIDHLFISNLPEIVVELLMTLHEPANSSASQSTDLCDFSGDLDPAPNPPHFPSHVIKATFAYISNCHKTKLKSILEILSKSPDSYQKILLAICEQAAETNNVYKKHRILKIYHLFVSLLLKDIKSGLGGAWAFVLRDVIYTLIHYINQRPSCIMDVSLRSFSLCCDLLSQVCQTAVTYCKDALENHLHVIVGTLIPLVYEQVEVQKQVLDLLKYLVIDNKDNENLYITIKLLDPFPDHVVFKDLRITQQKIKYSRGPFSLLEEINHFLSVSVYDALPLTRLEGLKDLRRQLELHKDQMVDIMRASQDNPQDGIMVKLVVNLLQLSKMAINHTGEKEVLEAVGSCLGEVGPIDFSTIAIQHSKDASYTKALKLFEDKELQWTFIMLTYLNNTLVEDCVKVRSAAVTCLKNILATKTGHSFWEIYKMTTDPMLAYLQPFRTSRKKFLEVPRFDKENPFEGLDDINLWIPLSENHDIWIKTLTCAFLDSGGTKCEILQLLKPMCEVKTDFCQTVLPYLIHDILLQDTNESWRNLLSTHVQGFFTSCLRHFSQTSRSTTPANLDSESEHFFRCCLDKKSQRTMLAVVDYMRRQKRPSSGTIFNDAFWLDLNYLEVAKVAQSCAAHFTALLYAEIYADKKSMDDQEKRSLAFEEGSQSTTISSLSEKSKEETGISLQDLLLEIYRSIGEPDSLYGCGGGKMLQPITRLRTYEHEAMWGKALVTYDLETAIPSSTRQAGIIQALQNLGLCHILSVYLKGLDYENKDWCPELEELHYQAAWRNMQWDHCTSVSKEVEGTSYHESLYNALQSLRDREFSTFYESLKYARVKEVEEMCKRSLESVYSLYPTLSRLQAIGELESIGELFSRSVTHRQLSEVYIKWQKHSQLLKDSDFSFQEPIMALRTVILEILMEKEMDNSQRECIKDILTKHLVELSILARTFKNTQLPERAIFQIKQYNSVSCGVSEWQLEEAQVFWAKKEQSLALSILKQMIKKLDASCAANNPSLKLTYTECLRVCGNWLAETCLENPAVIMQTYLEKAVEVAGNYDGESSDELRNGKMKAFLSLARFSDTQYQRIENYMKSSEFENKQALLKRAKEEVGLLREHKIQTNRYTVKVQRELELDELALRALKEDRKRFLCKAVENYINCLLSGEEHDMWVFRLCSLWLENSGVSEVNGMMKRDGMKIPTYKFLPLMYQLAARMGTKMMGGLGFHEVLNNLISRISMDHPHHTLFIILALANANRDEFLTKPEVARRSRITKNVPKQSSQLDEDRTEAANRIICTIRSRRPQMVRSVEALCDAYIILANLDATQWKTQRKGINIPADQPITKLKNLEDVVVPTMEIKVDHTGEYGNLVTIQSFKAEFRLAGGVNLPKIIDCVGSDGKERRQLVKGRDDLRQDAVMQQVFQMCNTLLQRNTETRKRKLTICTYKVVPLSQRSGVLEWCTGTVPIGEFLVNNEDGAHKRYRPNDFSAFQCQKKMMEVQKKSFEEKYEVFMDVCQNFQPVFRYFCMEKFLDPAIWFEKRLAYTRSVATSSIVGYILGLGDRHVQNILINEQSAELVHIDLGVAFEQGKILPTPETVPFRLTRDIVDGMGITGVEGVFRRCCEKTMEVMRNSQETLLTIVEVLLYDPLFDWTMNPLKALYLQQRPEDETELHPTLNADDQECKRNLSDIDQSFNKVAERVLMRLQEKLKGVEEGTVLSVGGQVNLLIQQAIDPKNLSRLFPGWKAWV

| IC50 [nM] | Molecule |
| --- | --- |
| 100 to 500 | O=c1cc(N2CCOCC2)cc(-c2cccc3c2Sc2ccc(NCc4cccnc4)cc2S3)[nH]1 [Example 1-12-25, 4-Morpholino-6-(7-((pyridin-3-ylmethyl)amino)thianthren-1-yl)pyridin-2 (1H)-one] |
| 100 to 500 | CCC(Nc1ccc2c(c1)Sc1cccc(-c3cc(N4CCOCC4)cc(=O)[nH]3)c1O2)c1cncc(OC)c1 (stereo not shown) [Example 4-4-27, 6-(8-((1-(5-Methoxypyridin-3-yl)propyl)amino)phenoxathiin-4-yl)-4-morpholino pyridin-2(1 H)-one] |
| 500 to 2000 | CC1CCCCN1CC(CO)Nc1ccc2c(c1)Sc1cccc(-c3cc(N4CCOCC4)cc(=O)[nH]3)c1S2 (single isomer, unassigned) [Example 1-37-7, 6-(7-((1-Hydroxy-3-(2-methylpiperidin-1-yl)propan-2-yl)amino)thianthren-1-yl)-4-morpholino pyridin-2(1H)-one] |
| < 100 | COc1cncc(C(C)Nc2ccc3c(c2)Sc2cccc(-c4cc(N5CCOCC5)cc(=O)[nH]4)c2S3)c1 (single isomer, unassigned) [Example 1-12-145-2, 6-(7-((1-(5-methoxypyridin-3-yl)ethyl)amino)thianthren-1-yl)-4-morpholinopyridin-2(1H)-one] |
| 100 to 500 | CC(CNC1CCCCC1)Nc1ccc2c(c1)Sc1cccc(-c3cc(N4CCOCC4)cc(=O)[nH]3)c1S2 (stereo not shown) [Example 1-13-7, 6-(7-((1-(Cyclohexylamino)propan-2-yl)amino)thianthren-1-yl)-4-morpholino pyridin-2(1H)-one] |
| 100 to 500 | CNc1ccc(CNc2ccc3c(c2)Sc2cccc(-c4cc(N5CCOCC5)cc(=O)[nH]4)c2S3)cn1 [Example 1-12-8, 6-(7-(((6-(Methylamino)pyridin-3-yl)methyl)amino)thianthren-1-yl)-4-morpholino pyridin-2(1H)-one] |
| 500 to 2000 | O=c1cc(N2CCOCC2)cc(-c2cccc3c2Sc2ccc(NCc4ccncc4)cc2C3)[nH]1 [Example 3-8-2, 4-Morpholino-6-(7-((pyridin-4-ylmethyl)amino)-9H-thioxanthen-4-yl)pyridin-2(1H)-one] |
| 100 to 500 | CC(CN1CCC1)Nc1ccc2c(c1)Sc1cccc(-c3cc(N4CCOCC4)cc(=O)[nH]3)c1S2 (stereo not shown) [Example 1-43-1, 6-(7-((1-(azetidin-1-yl)propan-2-yl)amino)thianthren-1-yl)-4-morpholinopyridin-2(1H)-one] |
| 100 to 500 | COc1ccc(CNc2ccc3c(c2)Sc2cccc(-c4cc(N5CCOCC5)cc(=O)[nH]4)c2S3)nc1 [Example 1-12-12, 6-(7-(((5-Methoxypyridin-2-yl)methyl)amino)thianthren-1-yl)-4-morpholino pyridin-2(1H)-one] |
| 100 to 500 | CCCC(Nc1ccc2c(c1)Sc1cccc(-c3cc(N4CCOCC4)cc(=O)[nH]3)c1S2)[C@H](C)N1CCOCC1 (stereo partly drawn) [Example 1-21-1, 6-(7-(((2S)-2-morpholinohexan-3-yl)amino)thianthren-1-yl)-4-morpholinopyridin-2(1H)-one] |
| 100 to 500 | Cc1cc(CNc2ccc3c(c2)Sc2cccc(-c4cc(N5CCOCC5)cc(=O)[nH]4)c2O3)ccn1 [Example 4-4-3, 6-(8-(((2-Methylpyridin-4-yl)methyl)amino)phenoxathiin-4-yl)-4-morpholino pyridin-2 (1H)-one] |
| 100 to 500 | Cc1ccc(C(C[C@@H]2CCCN2)Nc2ccc3c(c2)Sc2cccc(-c4cc(N5CCOCC5)cc(=O)[nH]4)c2S3)nc1 (single isomer, unassigned) [Example 12-1] |
| 100 to 500 | CC1CC(C)CN(CC(CO)Nc2ccc3c(c2)Sc2cccc(-c4cc(N5CCOCC5)cc(=O)[nH]4)c2S3)C1 (stereo not shown) [Example 1-37-5, 6-(7-((1-(3,5-Dimethylpiperidin-1-yl)-3-hydroxypropan-2-yl)amino)thianthren-1-yl)-4-morpholino pyridin-2 (1H)-one] |
| < 100 | Cc1ccc(C(Nc2ccc3c(c2)Sc2cccc(-c4cc(N5CCOCC5)cc(=O)[nH]4)c2S3)C2CNCCO2)nc1 (single isomer, unassigned) [Example 1-55-1, 6-(7-(((5-methylpyridin-2-yl)(morpholin-2-yl)methyl)amino)thianthren-1-yl)-4-morpholinopyridin-2(1H)-one] |
| 100 to 500 | CC(Nc1ccc2c(c1)Sc1cccc(-c3cc(N4CCOCC4)cc(=O)[nH]3)c1S2)c1ccnc(C#N)n1 (stereo not shown) [Example 1-12-82, 4-(1-((6-(4-Morpholino-6-oxo-1,6-dihydropyridin-2-yl)thianthren-2-yl)amino)ethyl) pyrimidine-2-carbonitrile] |

Second part, the molecule before the results:

| Molecule | IC50 [nM] |
| --- | --- |
| CN(C)c1ccc(CN2CCC(Nc3ccc4c(c3)Cc3cccc(-c5cc(N6CCOCC6)cc(=O)[nH]5)c3O4)CC2)cn1 [Example 2-28-9, 6-(7-((1-((6-(Dimethylamino)pyridin-3-yl)methyl)piperidin-4-yl)amino)-9H-xanthen-4-yl)-4-morpholino pyridin-2(1H)-one] | 100 to 500 |
| COc1cccnc1CNc1ccc2c(c1)Cc1cccc(-c3cc(N4CCOCC4)cc(=O)[nH]3)c1O2 [Example 2-14-8, 6-(7-(((3-Methoxypyridin-2-yl)methyl)amino)-9H-xanthen-4-yl)-4-morpholino pyridin-2(1H)-one] | 100 to 500 |
| O=c1cc(N2CCOCC2)cc(-c2cccc3c2Oc2ccc(NCc4cncc(C5=CCCC5)c4)cc2C3)[nH]1 [Example 2-2-61, 6-(7-(((5-(Cyclopent-1-en-1-yl)pyridin-3-yl)methyl)amino)-9H-xanthen-4-yl)-4-morpholino pyridin-2(1H)-one] | 100 to 500 |
| O=c1cc(N2CCOCC2)cc(-c2cccc3c2Oc2ccc(NCc4ccncc4)cc2CC3)[nH]1 [Example 2-51-3, 4-Morpholino-6-(8-((pyridin-4-ylmethyl)amino)-10,11-dihydrodibenz[b,f]oxepin-4-yl)pyridin-2(1H)-one] | 500 to 2000 |
| CN1CCC(Nc2ccc3c(c2)Cc2cccc(-c4cc(N5CCOCC5)cc(=O)[nH]4)c2O3)CC1 [Example 2-3-7, 6-(7-((1-Methylpiperidin-4-yl)amino)-9H-xanthen-4-yl)-4-morpholino pyridin-2(1H)-one] | 500 to 2000 |
| Cc1ccnc(C(C)Nc2ccc3c(c2)Cc2ccnc(-c4cc(N5CCOCC5)cc(=O)[nH]4)c2O3)c1 (stereo not shown) [Example 2-42-5, 6-(7-((1-(4-Methylpyridin-2-yl)ethyl)amino)-5H-chromeno[2,3-c]pyridin-1-yl)-4-morpholinopyridin-2(1H)-one] | 100 to 500 |
| CC(CN1CCC(Nc2ccc3c(c2)Cc2cccc(-c4cc(N5CCOCC5)cc(=O)[nH]4)c2O3)CC1)c1ccccc1 (stereo not shown) [Example 2-28-37, 4-Morpholino-6-(7-((1-(2-phenylpropyl)piperidin-4-yl)amino)-9H-xanthen-4-yl) pyridin-2(1H)-one] | 100 to 500 |
| Cn1cc(-c2cncc(CNc3ccc4c(c3)Sc3cccc(-c5cc(N6CCOCC6)cc(=O)[nH]5)c3O4)c2)cn1 [Example 4-4-11, 6-(8-(((5-(1-Methyl-1H-pyrazol-4-yl)pyridin-3-yl)methyl)amino)phenoxathiin-4-yl)-4-morpholino pyridin-2 (1H)-one] | 100 to 500 |
| O=c1cc(N2CCOCC2)cc(-c2cccc3c2Oc2ccc(NC4CCN(CCc5ccc(Cl)cc5)CC4)cc2C3)[nH]1 [Example 2-30-6, 6-(7-((1-(4-Chlorophenethyl)piperidin-4-yl)amino)-9H-xanthen-4-yl)-4-morpholino pyridin-2 (1H)-one] | 500 to 2000 |
| COc1cncc(C(C)Nc2ccc3c(c2)Cc2cccc(-c4cc(N5CCOCC5)cc(=O)[nH]4)c2O3)c1 (racemic) [Example 2-11-2, 6-(7-((1-(5-Methoxypyridin-3-yl)ethyl)amino)-9H-xanthen-4-yl)-4-morpholinopyridin-2(1H)-one] | 100 to 500 |
| O=c1cc(N2CCOCC2)cc(-c2cccc3c2Oc2ccc(NCc4cncc(OC(F)F)c4)cc2C3)[nH]1 [Example 2-14-6, 6-(7-(((5-(Difluoromethoxy)pyridin-3-yl)methyl)amino)-9H-xanthen-4-yl)-4-morpholino pyridin-2(1H)-one] | 100 to 500 |
| 6-(7-((4,4-Difluoropiperidin- 1-yl)methyl)-9H-xanthen-4- yl)-4-morpholino pyridin-2 (1H)-one [Example 2-2-39] | < 100 |
| Cc1csc(CNc2ccc3c(c2)Cc2cccc(-c4cc(N5CCOCC5)cc(=O)[nH]4)c2O3)n1 [Example 2-14-42, 6-(7-(((4-Methylthiazol-2-yl)methyl)amino)-9H-xanthen-4-yl)-4-morpholino pyridin-2(1H)-one] | 100 to 500 |
| CN(C)c1ncc(CN2CCC(Nc3ccc4c(c3)Cc3cccc(-c5cc(N6CCOCC6)cc(=O)[nH]5)c3O4)CC2)cn1 [Example 2-28-13, 6-(7-((1-((2-(Dimethylamino)pyrimidin-5-yl)methyl)piperidin-4-yl)amino)-9H-xanthen-4-yl)-4-morpholino pyridin-2(1H)-one] | 100 to 500 |
| O=c1cc(N2CCOCC2)cc(-c2cccc3c2Oc2ccc(NCc4ccc(N5CCOCC5)nc4)cc2C3)[nH]1 [Example 2-2-6, 4-Morpholino-6-(7-(((6-morpholinopyridin-3-yl)methyl)amino)-9H-xanthen-4-yl)pyridin-2(1H)-one] | 100 to 500 |
| COc1cc(C(C)Nc2ccc3c(c2)Cc2cccc(-c4cc(N5CCOCC5)cc(=O)[nH]4)c2O3)ccn1 (stereo not shown) [Example 2-14-26, 6-(7-((1-(2-Methoxypyridin-4-yl)ethyl)amino)-9H-xanthen-4-yl)-4-morpholino pyridin-2(1H)-one] | < 100 |
| Cc1cncc(C(C)Nc2ccc3c(c2)Cc2cccc(-c4cc(N5CCOCC5)cc(=O)[nH]4)c2O3)c1 (stereo not shown) [Example 2-14-22, 6-(7-((1-(5-Methylpyridin-3-yl)ethyl)amino)-9H-xanthen-4-yl)-4-morpholino pyridin-2(1H)-one] | 100 to 500 |
| COCc1cncc(CNc2ccc3c(c2)Cc2cccc(-c4cc(N5CCOCC5)cc(=O)[nH]4)c2O3)c1 [Example 2-2-33, 6-(7-(((5-(Methoxymethyl)pyridin-3-yl)methyl)amino)-9H-xanthen-4-yl)-4-morpholino pyridin-2(1H)-one] | 100 to 500 |
| COc1ccnc(C(C)Nc2ccc3c(c2)Cc2ccnc(-c4cc(N5CCOCC5)cc(=O)[nH]4)c2O3)c1 (stereo not shown) [Example 2-41-14] | 100 to 500 |
